These results are taken from ChEMBL document CHEMBL1154002, “GPR109a agonists. Part 1: 5-Alkyl and 5-aryl-pyrazole-tetrazoles as agonists of the human orphan G-protein coupled receptor GPR109a” (Bioorg Med Chem Lett, 2009).

Tested on in one series: not listed separately
The series can be described thus: Bioavailability in C57BL/6 mouse at 1 mg/kg, iv and 2 mg/kg, po. It counts as ADME, organism-based. The following applies: in vivo.
As to `Fc1cccc(C2Cc3[nH]nc(-c4nnn[nH]4)c3C2)c1` (stereo unspecified), the bioavailability was found to be 57%.

Regarding `Fc1cc(F)c(F)c(C2Cc3[nH]nc(-c4nnn[nH]4)c3C2)c1` (stereo in doubt; 9o), the bioavailability was 10%.

The molecule `CCCC1Cc2[nH]nc(-c3nnn[nH]3)c2C1` (stereo unspecified) displayed a bioavailability of 51%.

Molecule `CCCCC1Cc2[nH]nc(-c3nnn[nH]3)c2C1` (stereo in doubt; 8d) registered a bioavailability of 34%.

`O=C(O)c1cccnc1` [NIACIN] had a bioavailability of 100%.

Tested on in the next series: not listed separately
As to the kind of experiment: Plasma clearance in C57BL/6 mouse at 1 mg/kg, iv and 2 mg/kg, po. The format is ADME, organism-based.
Settings: not given
`Fc1cccc(C2Cc3[nH]nc(-c4nnn[nH]4)c3C2)c1` (stereo unspecified) came in with a clearance of 47 mL/min/kg.

Regarding `Fc1cc(F)c(F)c(C2Cc3[nH]nc(-c4nnn[nH]4)c3C2)c1` (stereo in doubt; 9o), the clearance turned out to be 27 mL/min/kg.

Molecule `CCCC1Cc2[nH]nc(-c3nnn[nH]3)c2C1` (stereo unspecified) had a clearance of 30 mL/min/kg.

Turning to `CCCCC1Cc2[nH]nc(-c3nnn[nH]3)c2C1` (stereo in doubt; 8d), the clearance turned out to be 21 mL/min/kg.

In the case of `O=C(O)c1cccnc1` [NIACIN], the clearance was determined as 145 mL/min/kg.

Tested on in a further series: not listed separately
As to the kind of experiment: Volume of distribution at steady state in C57BL/6 mouse at 1 mg/kg, iv and 2 mg/kg, po. The format is ADME, organism-based. The following applies: in vivo, read-out: Vdss.
In the case of `Fc1cccc(C2Cc3[nH]nc(-c4nnn[nH]4)c3C2)c1` (stereo unspecified), the Vd came to 1.79 L/kg.

As to `Fc1cc(F)c(F)c(C2Cc3[nH]nc(-c4nnn[nH]4)c3C2)c1` (stereo in doubt; 9o), the Vd was 1.1 L/kg.

Turning to `CCCC1Cc2[nH]nc(-c3nnn[nH]3)c2C1` (stereo unspecified), the Vd came to 1.55 L/kg.

For `CCCCC1Cc2[nH]nc(-c3nnn[nH]3)c2C1` (stereo in doubt; 8d), the Vd turned out to be 0.7 L/kg.

Take `O=C(O)c1cccnc1` [NIACIN]: the Vd is 1 L/kg.

Tested on in the next series: not listed separately
As to the kind of experiment: Plasma half life in C57BL/6 mouse at 1 mg/kg, iv and 2 mg/kg, po. It counts as ADME, organism-based.
Settings: not given
In turn, `Fc1cccc(C2Cc3[nH]nc(-c4nnn[nH]4)c3C2)c1` (stereo unspecified) showed a half-life of 1.8 h.

Turning to `Fc1cc(F)c(F)c(C2Cc3[nH]nc(-c4nnn[nH]4)c3C2)c1` (stereo in doubt; 9o), the half-life is 2.4 h.

As for `CCCC1Cc2[nH]nc(-c3nnn[nH]3)c2C1` (stereo unspecified), the half-life was 2.9 h.

The molecule `CCCCC1Cc2[nH]nc(-c3nnn[nH]3)c2C1` (stereo in doubt; 8d) showed a half-life of 1.5 h.

For another series, the system named is Mus musculus. As to the kind of experiment: Reduction in plasma free fatty acid level in C57B1/6 mouse at 10 mg/kg after 15 mins. Also on record: scale not given: the % may be the effect or the level left. It counts as functional.
Settings: not given
`Fc1cc(F)c(F)c(C2Cc3[nH]nc(-c4nnn[nH]4)c3C2)c1` (stereo in doubt; 9o) yielded an Activity of 24%.

The next series deals with Mus musculus. As to the kind of experiment: Toxicity in C57B1/6 mouse assessed as cutaneous flushing at 30 mg/kg after 15 mins by laser doppler method. It counts as organism-based. Also on record: dose 30 mg/kg. The following applies: in vivo.
On to `Fc1cc(F)c(F)c(C2Cc3[nH]nc(-c4nnn[nH]4)c3C2)c1` (stereo in doubt; 9o), for which the Activity result was “Non-toxic”.
